For series [1], the target named is Calcium/calmodulin-dependent protein kinase type 1 (Homo sapiens) (UniProt Q14012). The series can be described thus: Selectivity interaction (Adapta Assay) EUB0001632a CAMK1. The note with it: at 10 µM.
Series [2] deals with Tyrosine-protein kinase Lck (Homo sapiens, UniProt P06239). The series can be described thus: Selectivity interaction (Ambit KINOMEscan and KiNATiv profiling in Jurkat cells) EUB0000090b LCK. The class given is cell-based. As to conditions: at 1 µM.
Series [3] has as its target Amine oxidase [flavin-containing] A (Homo sapiens, UniProt P21397). The series can be described thus: Selectivity interaction (Panel of non-epigenetic targets (kinases, GPCRs, ion channels, and transporters, Eurofins) ) EUB0000271b MAOA. As to conditions: at 1 µM.
Series [4] deals with T1, Dual serine/threonine and tyrosine protein kinase (Homo sapiens) (UniProt Q6XUX3).
T1 sequence (whole entry): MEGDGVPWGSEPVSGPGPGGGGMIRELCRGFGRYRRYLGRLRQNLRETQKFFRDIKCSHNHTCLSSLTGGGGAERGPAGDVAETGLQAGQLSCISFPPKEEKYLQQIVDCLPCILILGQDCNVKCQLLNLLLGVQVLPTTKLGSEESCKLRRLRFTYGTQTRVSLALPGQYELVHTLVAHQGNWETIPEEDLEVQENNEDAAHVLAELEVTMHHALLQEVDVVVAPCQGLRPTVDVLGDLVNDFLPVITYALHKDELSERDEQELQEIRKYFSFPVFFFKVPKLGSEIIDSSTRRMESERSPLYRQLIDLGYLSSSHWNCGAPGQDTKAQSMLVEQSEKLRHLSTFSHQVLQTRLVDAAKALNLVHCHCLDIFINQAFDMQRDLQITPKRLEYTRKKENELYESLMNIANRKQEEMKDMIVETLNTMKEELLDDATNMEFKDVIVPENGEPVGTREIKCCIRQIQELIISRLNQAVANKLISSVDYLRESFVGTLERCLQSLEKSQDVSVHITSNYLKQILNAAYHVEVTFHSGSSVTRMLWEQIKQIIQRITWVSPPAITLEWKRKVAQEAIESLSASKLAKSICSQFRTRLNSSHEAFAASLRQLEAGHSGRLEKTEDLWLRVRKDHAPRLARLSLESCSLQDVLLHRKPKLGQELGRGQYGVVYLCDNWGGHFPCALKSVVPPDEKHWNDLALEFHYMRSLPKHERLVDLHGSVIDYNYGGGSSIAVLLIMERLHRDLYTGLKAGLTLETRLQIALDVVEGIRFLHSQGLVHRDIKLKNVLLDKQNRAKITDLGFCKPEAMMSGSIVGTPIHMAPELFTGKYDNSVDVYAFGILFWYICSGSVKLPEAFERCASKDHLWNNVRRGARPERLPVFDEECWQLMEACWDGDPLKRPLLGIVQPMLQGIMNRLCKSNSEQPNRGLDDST
The series can be described thus: Selectivity interaction (KinomeScan (DiscoverX)) EUB0001079a DSTYK. The note with it: at 1 µM.

Series [5] has as its target Ephrin type-A receptor 5 (Homo sapiens) (UniProt P54756). The series can be described thus: Selectivity interaction (KinomeScan (DiscoverX)) EUB0001619a EPHA5. The note with it: at 1 µM.
Series [6] concerns the target T2, Bromodomain and PHD finger-containing protein 3 (Homo sapiens) (UniProt Q9ULD4).
T2 sequence (whole entry): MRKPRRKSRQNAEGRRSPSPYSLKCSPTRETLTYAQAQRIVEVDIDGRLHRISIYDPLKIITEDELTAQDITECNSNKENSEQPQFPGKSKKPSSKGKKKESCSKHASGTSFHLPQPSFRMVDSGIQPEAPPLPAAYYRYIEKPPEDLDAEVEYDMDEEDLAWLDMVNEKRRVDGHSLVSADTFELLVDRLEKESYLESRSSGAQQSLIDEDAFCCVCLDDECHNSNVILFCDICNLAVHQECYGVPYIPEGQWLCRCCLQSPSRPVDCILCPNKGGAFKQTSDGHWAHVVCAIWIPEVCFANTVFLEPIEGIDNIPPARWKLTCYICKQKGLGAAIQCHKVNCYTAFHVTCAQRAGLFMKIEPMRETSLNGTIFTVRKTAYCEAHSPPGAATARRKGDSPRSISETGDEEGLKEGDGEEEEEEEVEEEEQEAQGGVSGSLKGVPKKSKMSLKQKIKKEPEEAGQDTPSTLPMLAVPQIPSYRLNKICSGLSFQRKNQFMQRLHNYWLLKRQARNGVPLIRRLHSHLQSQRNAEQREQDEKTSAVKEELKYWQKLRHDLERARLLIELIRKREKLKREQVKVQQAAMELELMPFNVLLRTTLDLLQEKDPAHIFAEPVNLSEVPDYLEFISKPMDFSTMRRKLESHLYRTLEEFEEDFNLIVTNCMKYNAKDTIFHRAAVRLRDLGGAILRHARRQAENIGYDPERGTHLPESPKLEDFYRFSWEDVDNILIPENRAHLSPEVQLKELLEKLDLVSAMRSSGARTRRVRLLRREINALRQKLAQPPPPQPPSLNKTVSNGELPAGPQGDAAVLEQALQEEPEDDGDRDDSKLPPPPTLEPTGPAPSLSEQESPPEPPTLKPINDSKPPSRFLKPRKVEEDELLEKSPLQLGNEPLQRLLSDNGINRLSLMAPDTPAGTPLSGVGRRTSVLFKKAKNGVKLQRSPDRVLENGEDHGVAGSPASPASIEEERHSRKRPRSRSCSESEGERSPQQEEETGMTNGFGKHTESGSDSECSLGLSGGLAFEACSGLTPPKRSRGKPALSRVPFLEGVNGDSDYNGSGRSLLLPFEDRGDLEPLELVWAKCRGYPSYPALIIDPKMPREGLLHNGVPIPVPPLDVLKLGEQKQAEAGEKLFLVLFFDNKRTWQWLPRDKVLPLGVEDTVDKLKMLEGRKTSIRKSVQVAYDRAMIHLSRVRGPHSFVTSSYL
The series can be described thus: Selectivity interaction (Human bromodomain panel (DSF assay)) EUB0000233b BRPF3. A general note: In DSF a fluorescence change marks the thermal transition of the protein.

Consider six compounds from ChEMBL document CHEMBL5465560, “Selectivity Literature for EUbOPEN Chemogenomic Library” (2024).

Chain of Amine oxidase [flavin-containing] A (P21397 whole entry): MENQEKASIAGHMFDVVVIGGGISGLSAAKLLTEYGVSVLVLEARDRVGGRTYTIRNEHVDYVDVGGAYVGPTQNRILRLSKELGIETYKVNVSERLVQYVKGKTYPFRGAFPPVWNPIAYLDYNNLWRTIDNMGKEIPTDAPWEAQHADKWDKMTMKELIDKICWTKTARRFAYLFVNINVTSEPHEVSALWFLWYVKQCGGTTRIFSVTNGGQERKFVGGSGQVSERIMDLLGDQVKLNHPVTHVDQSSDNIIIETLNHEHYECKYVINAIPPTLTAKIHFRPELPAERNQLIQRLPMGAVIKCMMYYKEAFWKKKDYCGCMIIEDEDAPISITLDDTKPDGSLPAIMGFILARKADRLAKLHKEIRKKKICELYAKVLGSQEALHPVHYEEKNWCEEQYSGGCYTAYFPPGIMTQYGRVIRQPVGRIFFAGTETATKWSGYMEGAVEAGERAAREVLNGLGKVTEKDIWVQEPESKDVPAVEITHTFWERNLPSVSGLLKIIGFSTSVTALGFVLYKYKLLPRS
Chain of Ephrin type-A receptor 5 (Homo sapiens) (P54756 whole entry): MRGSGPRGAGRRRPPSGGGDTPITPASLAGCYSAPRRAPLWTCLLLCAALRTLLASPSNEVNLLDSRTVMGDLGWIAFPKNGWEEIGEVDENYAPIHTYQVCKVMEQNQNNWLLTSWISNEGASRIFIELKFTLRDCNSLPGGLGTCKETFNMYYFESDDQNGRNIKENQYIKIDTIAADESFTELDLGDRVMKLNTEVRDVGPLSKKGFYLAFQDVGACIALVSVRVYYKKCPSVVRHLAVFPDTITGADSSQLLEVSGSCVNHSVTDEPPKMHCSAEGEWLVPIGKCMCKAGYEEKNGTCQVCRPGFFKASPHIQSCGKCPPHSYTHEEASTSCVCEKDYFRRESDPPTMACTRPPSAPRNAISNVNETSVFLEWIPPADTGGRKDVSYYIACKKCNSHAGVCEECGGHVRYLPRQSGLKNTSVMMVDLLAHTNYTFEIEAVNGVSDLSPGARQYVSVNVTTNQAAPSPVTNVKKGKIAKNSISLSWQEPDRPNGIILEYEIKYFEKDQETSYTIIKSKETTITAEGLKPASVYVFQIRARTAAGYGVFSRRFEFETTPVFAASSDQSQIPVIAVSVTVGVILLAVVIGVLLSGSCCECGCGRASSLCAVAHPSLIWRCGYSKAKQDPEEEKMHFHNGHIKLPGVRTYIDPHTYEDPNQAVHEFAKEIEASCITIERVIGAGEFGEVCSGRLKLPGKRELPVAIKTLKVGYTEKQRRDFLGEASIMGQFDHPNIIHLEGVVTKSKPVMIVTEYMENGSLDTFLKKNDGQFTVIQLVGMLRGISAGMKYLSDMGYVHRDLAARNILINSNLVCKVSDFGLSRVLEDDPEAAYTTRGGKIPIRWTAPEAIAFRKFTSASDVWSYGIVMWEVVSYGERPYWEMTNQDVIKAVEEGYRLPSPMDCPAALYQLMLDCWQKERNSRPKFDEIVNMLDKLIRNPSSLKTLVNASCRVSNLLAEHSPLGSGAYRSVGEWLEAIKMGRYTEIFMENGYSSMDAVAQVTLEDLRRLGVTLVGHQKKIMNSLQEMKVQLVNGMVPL
Chain of Calcium/calmodulin-dependent protein kinase type 1 (Homo sapiens) (Q14012 whole entry, looked up): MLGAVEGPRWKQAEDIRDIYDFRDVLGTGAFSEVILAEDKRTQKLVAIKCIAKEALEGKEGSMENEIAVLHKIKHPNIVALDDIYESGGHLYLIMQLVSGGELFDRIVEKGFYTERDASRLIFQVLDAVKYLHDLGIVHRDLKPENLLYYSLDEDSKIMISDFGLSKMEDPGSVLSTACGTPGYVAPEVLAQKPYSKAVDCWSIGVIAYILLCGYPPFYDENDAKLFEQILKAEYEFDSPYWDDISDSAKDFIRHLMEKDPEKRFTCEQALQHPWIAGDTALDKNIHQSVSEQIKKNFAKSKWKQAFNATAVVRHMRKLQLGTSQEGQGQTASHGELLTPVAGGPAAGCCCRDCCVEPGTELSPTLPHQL
Chain of Tyrosine-protein kinase Lck (P06239 2-509 limits assumed): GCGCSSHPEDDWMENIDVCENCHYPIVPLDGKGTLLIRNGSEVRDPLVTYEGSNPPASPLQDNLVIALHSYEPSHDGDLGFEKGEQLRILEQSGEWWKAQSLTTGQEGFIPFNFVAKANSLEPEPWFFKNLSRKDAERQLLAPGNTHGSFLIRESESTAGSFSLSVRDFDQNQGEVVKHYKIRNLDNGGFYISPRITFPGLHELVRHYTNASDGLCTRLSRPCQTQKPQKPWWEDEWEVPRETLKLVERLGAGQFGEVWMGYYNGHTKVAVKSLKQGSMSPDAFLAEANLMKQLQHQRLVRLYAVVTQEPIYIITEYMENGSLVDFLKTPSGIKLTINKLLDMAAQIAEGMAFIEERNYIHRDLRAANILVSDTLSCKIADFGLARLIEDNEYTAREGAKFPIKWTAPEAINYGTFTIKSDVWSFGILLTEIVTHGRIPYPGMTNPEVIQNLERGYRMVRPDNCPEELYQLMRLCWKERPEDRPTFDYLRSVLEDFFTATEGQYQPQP

On to `Cn1cc(-n2cnc3c(NCc4nc5cc(Cl)c(Cl)cc5[nH]4)nc(N4CCOCC4)nc32)cn1`, for which the % of inhibition in series [1] was 18.6%.

`CN(C)C/C=C/C(=O)Nc1ccc(C(=O)N2CCCC(Nc3ncc(Cl)c(-c4c[nH]c5ccccc45)n3)C2)cc1` (stereo unspecified) registered a % of control in series [2] of 84%. As for `Cc1cc(C)cc([C@@H]2c3cc(C)ccc3NC(=O)CN2C(=O)c2ccc(Br)s2)c1`, in series [3], the “% of inhibition” value was 12%. Take `Nc1cnc(N2CCc3cc(S(=O)(=O)Nc4c(F)cc(Cl)cc4F)cc(N4CCCC4=O)c32)nc1` [TP-020n]: the % of control in series [4] amounted to 100%. On to `N#Cc1cccc(-c2c[nH]c3ncnc(N4CCOCC4)c23)c1`, for which the % of control in series [5] came out at 99%. The compound `CN(C)CCCOc1ccc(-c2cc(NCCCn3cccn3)nc(S(C)(=O)=O)n2)cc1` gave a dTM in series [6] of less than 2 K.
